Four substances from article PMC8298602, “14-3-3-protein regulates Nedd4-2 by modulating interactions between HECT and WW domains” (Communications Biology, 2021) can be followed below.

Assay [1] relates to all human 14-3-3 protein isoforms. As to the kind of experiment: fluorescence polarization (FP), all seven 14-3-3 isoforms (results in words). The format is binding. The note with it: 50 nM FITC-labelled peptide, 14-3-3 isoforms from 80 μM. How it is done:
Fig. 4 14-3-3 isoform binding specificity of Nedd4-2 phosphomotifs. Binding of FITC-labeled phosphopeptides with 14-3-3 binding motifs of Nedd4-2 (pSer^342, pThr^367 or pSer^448) to all human 14-3-3 isoforms was characterized by FP titrations. The binding affinities of these peptides were determined by fitting FP data to a one-site binding model. The corresponding sequences of these peptides are shown at the top. Background polarization was subtracted from all values. Results are expressed as mean ± SD (n = 3). Error bars are not visible if they are smaller than the size of the symbol.
The FP assay was performed using a CLARIOstar microplate reader (BMG Labtech, […]) on 384-well black low-volume flat-bottom plates (Corning, New York, USA) in a buffer containing 10 mM HEPES (pH 7.4), 150 mM NaCl, 0.1% (v/v) Tween 20 and 0.1% (w/v) BSA. […] The excitation and emission wavelengths were 482 nm and 530 nm, respectively. The KD values were determined as the mean of three independent measurements using GraphPad Prism version 8.0.1 for Windows, GraphPad Software, La Jolla California USA, www.graphpad.com.
(§1) Results from the FP assay (Fig. 4) and immunoblot (Supplementary Fig. S1) are represented as means ± SD from three replicates as indicated in the figure legend. Statistical analysis for the data from immunoblot were performed using Graph-Pad Prism 8.4. Student’s t-test was used for comparison of relative changes of samples with and without 14-3-3η at selected timepoints (ns, non-significant P > 0.05; *, P < 0.05).
Background: Polarisation of emitted light reports the rotation of a fluorescent probe.

For another assay, the system named is Nedd4-2^186–975. The assay can be described thus: auto-ubiquitination (Ub chain formation) assay, immunoblot. The note with it: for Difference (no 14-3-3 minus with 14-3-3): normalized means; for effect on auto-ubiquitination of Nedd4-2^186–975 (in words): Nedd4-2^186–975 with 14-3-3, 1:2 molar ratio, 30 °C. It is filed as biochemical, human. How it is done: For in vitro ubiquitination assays, 5 µg of human Ub, 50 ng of E1 (mouse Uba1), 200 ng of E2 (mouse Ube2d2) and 500 ng of E3 (phosphorylated Nedd4-2^186–975) were incubated in 30 µl of the reaction mixture in a buffer containing 50 mM Tris pH 7.5, 2 mM ATP, 5 mM MgCl2 and 2 mM DTT and incubated for 5, 10 and 15 min at 30 °C. The reactions were stopped by adding 5 × SDS-PAGE loading buffer (250 mM Tris pH 6.8, 50% glycerol, 500 mM DTT and 10% SDS) and incubating at 95 °C for 3 minutes to denaturate the samples. For reactions with 14-3-3η, Nedd4-2^186–975 was mixed with 14-3-3η in a 1:2 molar ratio and incubated for 30 minutes on ice before starting the reaction. In addition, 20 µl of reaction was separated by conventional SDS-PAGE on a 10% acrylamide gel and electro-blotted against a PVDF membrane in 20 mM Tris pH 7.5, 154 mM glycin and 10% methanol buffer overnight at 4 °C. Rabbit anti-Ub polyclonal antibody (Enzo) and anti-rabbit IgG, HRP-linked Antibody (Cell Signaling Technology) were used to visualize the transferred polyubiquitin chains. Chemiluminescence was induced by ECL and detected using Fusion Solo S (Vilber). The detected bands of E3-Ub were quantitated using the Image Lab software (Bio-Rad).
as §1
Supplementary Fig. S1. 14-3-3 slows down the auto-ubiquitination of Nedd4- 2186-975. a Purity and integrity of the samples used in the Ub chain formation assay. The samples were resolved by 10% Tris/Glycine SDS-PAGE and stained with Coomassie G-250. b Ubiquitin (Ub) chain formation assay with and without 14-3-3ε and the representative immunoblot of Ub. Black rectangles denote the borders of the sample zones that were quantified. The presence of ubiquitinated Nedd4-2 in the quantified zones was confirmed by LC-MS analysis. c Relative abundances of ubiquitinated Nedd4-2186-975 with and without 14-3-3η based on the immunoblot of Ub. Error bars represent the standard deviation of three independent experiments. Results show the data distribution. Asterisks represent significant differences according to unpaired Student’s t-tests comparing relative change between samples without and with 14-3-3ε at selected timepoints (ns, non-significant P > 0.05; *, P < 0.05).
(1 picture or pasted object on this page, not shown here)

Take FITC-LRSCpSVTDAV [pep-S448]: the “binding to 14-3-3 isoforms (in words)” value in assay [1] is “binds to all 14-3-3 isoforms in the low micromolar range”.
FITC-ARSSpTVTGGE [pep-T367]: the “binding to 14-3-3 isoforms (in words)” value in assay [1] is “very weak, to all 14-3-3 isoforms except ε and σ”.
With “14-3-3η: 14-3-3 protein eta isoform, stable dimer, known Nedd4-2 binding partner”, the entries for the “Difference (no 14-3-3 minus with 14-3-3)” value in the assay with Nedd4-2^186–975 (5 min), in the assay on Nedd4-2^186–975 (10 min) and in the assay with Nedd4-2^186–975 (15 min) were 0.1757, 0.2602 and 0.2943, respectively. Further, the “relative abundance of ubiquitinated Nedd4-2^186–975” value (“relative abundance” for short) in the assay on Nedd4-2^186–975 (5 min, with 14-3-3, mean of n = 3, normalized (mean without 14-3-3 = 1), listed as 14-3-3) is on record as 0.8243; in the assay on Nedd4-2^186–975 (5 min, with 14-3-3, mean of n = 3, normalized (mean without 14-3-3 = 1), listed as 1433) it was 0.8243; with Nedd4-2^186–975 (5 min, with 14-3-3, replicate 1, normalized (mean without 14-3-3 = 1)) it was 0.8139; in the assay with Nedd4-2^186–975 (5 min, with 14-3-3, replicate 2, normalized (mean without 14-3-3 = 1)) it was 1.075; in the assay with Nedd4-2^186–975 (5 min, with 14-3-3, replicate 3, normalized (mean without 14-3-3 = 1)), 0.5843; in the assay on Nedd4-2^186–975 (10 min, with 14-3-3, mean of n = 3, normalized (mean without 14-3-3 = 1), listed as 14-3-3) it was 0.7398. Also, the “relative abundance” value in the assay on Nedd4-2^186–975 (10 min, with 14-3-3, mean of n = 3, normalized (mean without 14-3-3 = 1), listed as 1433) came out at 0.7398; in the assay with Nedd4-2^186–975 (10 min, with 14-3-3, replicate 1, normalized (mean without 14-3-3 = 1)), 0.713; in the assay with Nedd4-2^186–975 (10 min, with 14-3-3, replicate 2, normalized (mean without 14-3-3 = 1)), 0.8702; with Nedd4-2^186–975 (10 min, with 14-3-3, replicate 3, normalized (mean without 14-3-3 = 1)), 0.6363; in the assay with Nedd4-2^186–975 (15 min, with 14-3-3, mean of n = 3, normalized (mean without 14-3-3 = 1), listed as 14-3-3), 0.7057; in the assay on Nedd4-2^186–975 (15 min, with 14-3-3, mean of n = 3, normalized (mean without 14-3-3 = 1), listed as 1433), 0.7057. Also, the “relative abundance” value in the assay with Nedd4-2^186–975 (15 min, with 14-3-3, replicate 1, normalized (mean without 14-3-3 = 1)) is recorded as 0.7206; in the assay with Nedd4-2^186–975 (15 min, with 14-3-3, replicate 2, normalized (mean without 14-3-3 = 1)) it was 0.776; in the assay with Nedd4-2^186–975 (15 min, with 14-3-3, replicate 3, normalized (mean without 14-3-3 = 1)), 0.6205. Moreover, the “abundance of ubiquitinated Nedd4-2^186–975” value with Nedd4-2^186–975 (5 min, with 14-3-3, mean of n = 3, not normalized) is 1.509; in the assay on Nedd4-2^186–975 (5 min, with 14-3-3, replicate 1, not normalized), 1.49; in the assay with Nedd4-2^186–975 (5 min, with 14-3-3, replicate 2, not normalized) it was 1.967; in the assay on Nedd4-2^186–975 (5 min, with 14-3-3, replicate 3, not normalized) it was 1.069; in the assay on Nedd4-2^186–975 (10 min, with 14-3-3, mean of n = 3, not normalized), 2.393; in the assay on Nedd4-2^186–975 (10 min, with 14-3-3, replicate 1, not normalized) it was 2.306. Besides, the “abundance of ubiquitinated Nedd4-2^186–975” value is given as 2.814 with Nedd4-2^186–975 (10 min, with 14-3-3, replicate 2, not normalized); 2.058 in the assay with Nedd4-2^186–975 (10 min, with 14-3-3, replicate 3, not normalized); 3.153 in the assay with Nedd4-2^186–975 (15 min, with 14-3-3, mean of n = 3, not normalized); 3.22 in the assay on Nedd4-2^186–975 (15 min, with 14-3-3, replicate 1, not normalized); 3.467 in the assay with Nedd4-2^186–975 (15 min, with 14-3-3, replicate 2, not normalized); 2.772 in the assay on Nedd4-2^186–975 (15 min, with 14-3-3, replicate 3, not normalized). For the same substance, the “effect on auto-ubiquitination of Nedd4-2^186–975 (in words)” value with Nedd4-2^186–975 is “reduced”; with Nedd4-2^186–975 (listed as 14-3-3) it was “slows down”.
In the case of FITC-PRSLpSSPTVT [pep-S342], the “binding to 14-3-3 isoforms (in words)” value in assay [1] was “measurable binding affinity only to 14-3-3σ”.
